In brackets after ≈: the same amount, converted by molar mass. Several values for one entry are separate records, joined by “and”; a condition that tells them apart may be missing. Equal entries are not always repeated. Structures can show the parent of a compound that is named as a salt. Where two headings read alike, the source gives them in different places. Blank lines part the entries; values can stand above or below the molecule they belong to.
What was measured:
Test in all cases: in vitro antibacterial MIC, agar plate dilution
Format in all cases: cell-based
[1] = tested on: Staphylococcus aureus K 82-26; details: 18 hours, 35° C., monohydrochloride
Method in brief: (§1)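 MIC, mcg/ml: lowest concentration with no visible growth after 18 h incubation at 35° C. Mueller-Hinton agar dilution plates; ~10^4 CFU inoculum via Steers replicating device.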

[2] = tested on: Pseudomonas aeruginosa LL-1244; details: Pseudomonas aeruginosa, LL1244, 18 h, 35° C., read-out: MIC
Method in brief: as §1

[3] = tested on: Escherichia coli LL 311; details: Escherichia coli, LL311, 18 h, 35° C., read-out: MIC
Method in brief: as §1

[4] = tested on: Serratia marcescens MOR 84-41; details: 18 hours, 35° C., monohydrochloride
Method in brief: as §1

[5] = tested on: Pseudomonas aeruginosa CMC 83-20; details: 18 hours, 35° C., monohydrochloride
Method in brief: as §1

[6] = tested on: Morganella morganii CMC 84-38; details: 18 hours, 35° C., monohydrochloride
Method in brief: as §1

[7] = tested on: Proteus rettgeri CMC 84-41; details: 35° C.
Method in brief: as §1

[8] = tested on: Staphylococcus aureus ATTC 29213; details: 35° C.
Method in brief: as §1

[9] = tested on: Morganella morganii CMC 84-37; details: Morganella morganii, CMC8437, 18 h, 35° C., read-out: MIC
Method in brief: as §1

[10] = tested on: Streptococcus faecalis UCI 85-19; details: Enterococcus faecalis, UCI8519, 18 h, 35° C., read-out: MIC
Method in brief: as §1

[11] = tested on: Serratia marcescens K 84-18; details: 35° C.
Method in brief: as §1

[12] = tested on: Pseudomonas aeruginosa VGH 84-3; details: 18 hours, 35° C., monohydrochloride
Method in brief: as §1

[13] = tested on: Staphylococcus aureus VGH 84-45; details: Staphylococcus aureus, VGH8445, 18 h, 35° C., read-out: MIC
Method in brief: as §1

[14] = tested on: Streptococcus faecalis UCI 85-30; details: 18 hours, 35° C., monohydrochloride
Method in brief: as §1

[15] = tested on: Streptococcus faecalis CMC 83-120; details: 18 hours, 35° C., monohydrochloride
Method in brief: as §1

[16] = tested on: Serratia marcescens VGH 84-30; details: Serratia marcescens, VGH8430, 18 h, 35° C., read-out: MIC
Method in brief: as §1

[17] = tested on: Enterobacter cloacae MOR 84-30; details: 18 hours, 35° C., monohydrochloride
Method in brief: as §1

[18] = tested on: Staphylococcus aureus Smith; details: Staphylococcus aureus, 18 h, 35° C., read-out: MIC
Method in brief: as §1

[19] = tested on: Serratia marcescens CMC 83-74; details: 18 hours, 35° C., monohydrochloride
Method in brief: as §1

[20] = tested on: Streptococcus faecalis VGH 84-65; details: Enterococcus faecalis, VGH8465, 18 h, 35° C., read-out: MIC
Method in brief: as §1

[21] = tested on: Pseudomonas aeruginosa K 84-16; details: 18 hours, 35° C., monohydrochloride
Method in brief: as §1

[22] = tested on: Escherichia coli ATCC 25922; details: 35° C.
Method in brief: as §1

[23] = tested on: Providencia stuarti CMC 83-3; details: 18 hours, 35° C., monohydrochloride
Method in brief: as §1

[24] = tested on: Pseudomonas aeruginosa VGH 84-4; details: Pseudomonas aeruginosa, VGH844, 18 h, 35° C., read-out: MIC
Method in brief: as §1

[25] = tested on: Enterobacter cloacae K 84-10; details: 35° C.
Method in brief: as §1

[26] = tested on: Escherichia coli NAR 311; details: NAR311, 18 hours, 35° C., read-out: MIC
Method in brief: as §1

[27] = tested on: Enterobacter aerogenes VGH 84-36; details: Klebsiella aerogenes, VGH8436, 18 hours, 35° C., read-out: MIC
Method in brief: as §1

[28] = tested on: Staphylococcus epidermidis IO 83-58; details: IO8358, 18 hours, 35° C., read-out: MIC
Method in brief: as §1

[29] = tested on: Klebsiella pneumoniae AD; details: Klebsiella pneumoniae, 18 h, 35° C., read-out: MIC
Method in brief: as §1

[30] = tested on: Klebsiella oxytoca MOR 84-28; details: MOR8428, 18 hours, 35° C.
Method in brief: as §1

[31] = tested on: Streptococcus faecalis ATTC 29212; details: Enterococcus faecalis, ATTC29212, 18 hours, 35° C., read-out: MIC
Method in brief: as §1

[32] = tested on: Escherichia coli CMC 84-16; details: Escherichia coli, CMC8416, 18 h, 35° C., read-out: MIC
Method in brief: as §1

[33] = tested on: Staphylococcus aureus CMC 83-128; details: CMC83128, 18 hours, 35° C., read-out: MIC
Method in brief: as §1

[34] = tested on: Staphylococcus epidermidis VGH 84-40; details: VGH8440, 18 hours, 35° C., read-out: MIC
Method in brief: as §1

[35] = tested on: Staphylococcus aureus CMC 83-127; details: Staphylococcus aureus, CMC83127, 18 h, 35° C., read-out: MIC
Method in brief: as §1

[36] = tested on: Serratia marcescens F 0-35; details: Serratia marcescens, F035, 18 h, 35° C., read-out: MIC
Method in brief: as §1

[37] = tested on: Escherichia coli CMC 84-11; details: Escherichia coli, CMC8411, 18 h, 35° C., read-out: MIC
Method in brief: as §1

[38] = tested on: Enterobacter cloacae VGH 84-37; details: Enterobacter cloacae, VGH8437, 18 h, 35° C., read-out: MIC
Method in brief: as §1

[39] = tested on: Staphylococcus epidermidis CMC 83-135; details: CMC83135, 18 hours, 35° C., read-out: MIC
Method in brief: as §1

[40] = tested on: Klebsiella pneumoniae MOR 84-4; details: Klebsiella pneumoniae, MOR844, 18 h, 35° C., read-out: MIC
Method in brief: as §1

[41] = tested on: Staphylococcus aureus VGH 84-46; details: Staphylococcus aureus, VGH8446, 18 h, 35° C., read-out: MIC
Method in brief: as §1

[42] = tested on: Morganella morganii VGH 84-11; details: VGH8411, 18 hours, 35° C., read-out: MIC
Method in brief: as §1

[43] = tested on: Escherichia coli PRNT 311; details: PRNT311, 18 hours, 35° C., read-out: MIC
Method in brief: as §1

[44] = tested on: Staphylococcus Spp saprophiticus VGH 84-50; details: 18 hours, 35° C., read-out: MIC
Method in brief: as §1

MIC [1]: 0.03 µg/mL | MIC [2]: 4 µg/mL | MIC [3]: 0.03 µg/mL | MIC [4]: 0.25 µg/mL | MIC [5]: 4 µg/mL | MIC [6]: 0.12 µg/mL | MIC ([7]; 18 hours, monohydrochloride): 0.12 µg/mL | MIC ([8]; 18 hours, monohydrochloride): 0.03 µg/mL | MIC [9]: 0.12 µg/mL | MIC [10]: 0.5 µg/mL | MIC ([11]; 18 hours, monohydrochloride): 0.5 µg/mL | MIC [12]: 16 µg/mL | MIC [13]: < 0.015 µg/mL | MIC [14]: 0.5 µg/mL | MIC [15]: 0.5 µg/mL | MIC [16]: 8 µg/mL | MIC [17]: 0.25 µg/mL | MIC [18]: < 0.015 µg/mL | MIC [19]: 8 µg/mL | MIC [20]: 0.5 µg/mL | MIC [21]: 4 µg/mL | MIC ([22]; 18 hours, monohydrochloride): 0.06 µg/mL and 0.12 µg/mL | MIC [23]: 8 µg/mL | MIC [24]: 2 µg/mL | MIC ([25]; 18 hours, monohydrochloride): 0.06 µg/mL
Compound: O=C(O)c1cn(C2CC2)c2cc(N3CCNC(c4ccco4)C3)c(F)cc2c1=O (stereo not shown) [Example 99, 1-Cyclopropyl-6-fluoro-1,4-dihydro-4-oxo-7-[3-(2-furanyl) -1-piperazinyl-3-quinolinecarboxylic acid, monohydrochloride]

MIC [26]: 0.5 µg/mL (≈ 1.42 µM) | MIC [2]: 4 µg/mL (≈ 11.4 µM) | MIC [27]: 0.03 µg/mL (≈ 0.0854 µM) | MIC [28]: 0.25 µg/mL (≈ 0.712 µM) | MIC [29]: 0.06 µg/mL (≈ 0.171 µM) | MIC [30]: 0.06 µg/mL (≈ 0.171 µM) | MIC ([7]; Providencia rettgeri, CMC8441, 18 h, read-out: MIC): 0.12 µg/mL (≈ 0.342 µM) | MIC [31]: 2 µg/mL (≈ 5.69 µM) | MIC ([8]; Staphylococcus aureus, ATTC29213, 18 h, read-out: MIC): 0.5 µg/mL (≈ 1.42 µM) | MIC [9]: 0.06 µg/mL (≈ 0.171 µM) | MIC [32]: < 0.015 µg/mL | MIC [33]: 0.5 µg/mL (≈ 1.42 µM) | MIC ([11]; Serratia marcescens, K8418, 18 h, read-out: MIC): 0.06 µg/mL (≈ 0.171 µM) | MIC [13]: 0.12 µg/mL (≈ 0.342 µM) | MIC [34]: 0.25 µg/mL (≈ 0.712 µM) | MIC [35]: 0.12 µg/mL (≈ 0.342 µM) | MIC [18]: 0.25 µg/mL (≈ 0.712 µM) | MIC [36]: 0.12 µg/mL (≈ 0.342 µM) | MIC [37]: 0.03 µg/mL (≈ 0.0854 µM) | MIC [38]: 0.03 µg/mL (≈ 0.0854 µM) | MIC [39]: 0.25 µg/mL (≈ 0.712 µM) | MIC [40]: 0.06 µg/mL (≈ 0.171 µM) | MIC [20]: 2 µg/mL (≈ 5.69 µM) | MIC ([22]; Escherichia coli, ATCC25922, 18 h, read-out: MIC): < 0.015 µg/mL | MIC [41]: 0.25 µg/mL (≈ 0.712 µM) | MIC [42]: 0.06 µg/mL (≈ 0.171 µM) | MIC [43]: 0.03 µg/mL (≈ 0.0854 µM) | MIC [24]: 0.5 µg/mL (≈ 1.42 µM) | MIC ([25]; Enterobacter cloacae, K8410, 18 h, read-out: MIC): 0.03 µg/mL (≈ 0.0854 µM) | MIC [44]: 2 µg/mL (≈ 5.69 µM)
Compound: CCn1cc(C(=O)O)c(=O)c2cc(F)c(N3CCN(C)CC3)c(F)c21 [Example 61, 1-Ethyl-6,8-difluoro=1,4-dihydro-7-(4-methyl-1-piperazinyl)-4-oxo-3-quinolinecarboxylic acid]

— patent publication US5210193A, “Piperazine derivatives” (American Cyanamid Company, priority 1990, dated 1993)
